Values quoted from earlier work in patent publication US20190021385A1, “ORALLY DISSOLVABLE COMPOSITIONS FOR NUTRITION SUPPLEMENTATION” (Exeltis USA, Inc., priority 2017, published 2019).

Conditions: intake of about 1000 IU per day, all adults; Bischoff-Ferrari 2008

## C=C1CC[C@H](O)C/C1=C/C=C1\CCC[C@]2(C)[C@@H]([C@H](C)CCCC(C)C)CC[C@@H]12 [vitamin D3, cholecalciferol]
  share of the population brought up to the 30 ng/ml serum range for 25-hydroxyvitamin D: at least 50%
